Measured values: PubChem BioAssay AID720587 (Broad Institute, 2013)

Tested on: A673 Ewing sarcoma viability, CellTiter-Glo ATP luminescence, 72 h
Test: A673 Ewing sarcoma viability loss – cell-based, CellTiter-Glo luminescence, cherry-pick retest, confirmation (AID 720587)

SMILES | AC35 [µM]
C[C@@H]1CN([C@H](C)CO)C(=O)c2cc(N(C)C)ccc2O[C@H]1CN(C)Cc1ccc(C(=O)Nc2ccccc2N)cc1 | 16.7
C[C@@H]1CN([C@H](C)CO)C(=O)CCCn2nncc2CO[C@H]1CN(C)Cc1ccc(Oc2ccccc2)cc1 | 21.1
CC(C)=CCC/C(C)=C/CN1C(=O)N(c2ccc(F)cc2)[C@H]2C[C@@H](c3ccccc3)[C@@H](C)[C@@H](C(=O)N3CCOCC3)C[C@H]21 | 5.03
O=c1ccc2ccccc2c2ccccc12 | 6.04
CC(C)(C)[S@](=O)N1Cc2cc(C(=O)NCC(F)(F)F)nc(-c3cccc(-c4cccc(F)c4)c3)c2[C@@H]1CCO | 14.3
C[C@@H]1CN([C@H](C)CO)C(=O)Cc2cc(NC(=O)CCCCCC(=O)Nc3ccccc3N)ccc2O[C@@H]1CN(C)CC1CCCCC1 | 13.4
CN(C)CC1CCC/C(=C\c2ccc(OC(=O)c3ccc(Cl)cc3)cc2)C1=O (stereo not drawn) | 0.771
COc1ccc(-c2cn(-c3ccc(OC)cc3)c3[n+]2-c2ccccc2CC3)cc1 | 13.6
CCn1c(/C=N/NC(=O)c2ccc(OC)cc2)nc2ccccc21 | 5.62
CCc1nc(N)nc(N)c1-c1ccc(Cl)c(N=[N+]=[N-])c1 | 7.14
Cc1ccccc1NC(=O)C(=Cc1ccc(C(=O)O)cc1)C(=O)Nc1ccccc1C | 5.97
CCCCCCCCCCCCCCCCCCNc1ccn(C2OC(COP(=O)(O)OCC3OC(n4cc(F)c(=O)[nH]c4=O)CC3O)C(O)C2O)c(=O)n1 (stereo not drawn) | 0.137
CCOC(=O)[C@]12Cc3ccc(C)cc3[C@H]1N(C1CCCCC1)C(=O)c1ccccc12 | 5.01
O=C1c2ccccc2C(=O)c2cc(N3CCCCC3)ccc21 | 16.8
Cc1ccc(S(=O)(=O)Nc2ccc3c(c2)C(=O)N([C@@H](C)CO)C[C@@H](C)[C@@H](CN(C)Cc2ccc(C(=O)Nc4ccccc4N)cc2)O3)cc1 | 9.91
Cc1cc(C(=O)Nc2ccc3c(c2)C(=O)N(C)[C@@H]2CC[C@@H](CC(=O)NCc4ccc(-c5ccccc5)cc4)O[C@H]2CO3)no1 | 8.06
O=C(Nc1ccc(F)cc1)N1CCCCN2[C@@H](CO)[C@H](c3ccc(C4=CCCCC4)cc3)[C@@H]2C1 | 10.2
COc1cc2c(cc1OC)C(C)N(C(=O)c1cc(Cl)nc(Cl)c1)CC2 (stereo not drawn) | 12.1
C[C@]12CC[C@H]3[C@@H](CC[C@]4(O)C[C@@H](O)CC[C@]34C=O)[C@@]1(O)CC[C@@H]2C1=CC(=O)OC1 | 0.641
COc1ccc(S(=O)(=O)Nc2ccc3c(c2)C(=O)N([C@H](C)CO)C[C@@H](C)[C@@H](CN(C)Cc2ccc(C(=O)Nc4ccccc4N)cc2)O3)cc1 | 12.5
COc1ccc(OC)c(/C=C/c2ccnc3ccccc23)c1 | 1.7
COC(=O)C[C@H]1CC[C@@H]2[C@H](COc3ccc(NC(=O)Nc4cccc(Cl)c4)cc3C(=O)N2C)O1 | 14.1

SMILES | AC35 [µM]
C=C1C(=O)[C@@]23[C@H](O)C[C@@H]4C(C)(C)CC[C@H](O)[C@@]4(C)[C@@H]2CC[C@@H]1[C@H]3O | 3.15
Cc1nc(N)nc(N)c1CCCc1ccc(Cl)c(Cl)c1 | 2.8
COC(=O)C[C@@H]1CC[C@H]2[C@H](COc3ccc(NC(=O)Nc4ccc(C#N)cc4)cc3C(=O)N2C)O1 | 11.3
O=C(CCCN1C(=O)S/C(=C\c2ccccc2)C1=O)NNC(=O)c1ccccc1O | 18.7
C[C@H](CO)N1C[C@H](C)[C@H](CN(C)Cc2ccccc2)Oc2ccc(NC(=O)CCCCCC(=O)Nc3ccccc3N)cc2CC1=O | 15.7
C[C@H]1CN([C@@H](C)CO)C(=O)c2cccc(NC(=O)CCCCCC(=O)Nc3ccccc3N)c2O[C@@H]1CN(C)Cc1ccc2c(c1)OCO2 | 23.6
CCCCCCCN(c1ccccc1)[C@@H]1C[C@H]2CCCC(=O)N3CC[C@@H](C1)[C@@H]23 | 10.2
CN(C)c1ccc(-c2ccnc3c2CC(C)(C(=O)NCc2ccco2)O3)cc1 (stereo not drawn) | 7.77
CCOc1ccc(N=C2C(=O)Nc3ccc(C)c(Br)c32)cc1 | 20.7
Cc1cc2c(C(C)C)c(O)c(O)c(C=O)c2c(O)c1-c1c(C)cc2c(C(C)C)c(O)c(O)c(C=O)c2c1O | 6.09
Cc1sc2nc(CN3CCC(C)CC3)nc(Cl)c2c1C | 10.7
COc1cc2c(cc1NC(=O)CN(C)Cc1ccc(OC)c(OC)c1)oc1ccccc12 | 21.5
O=c1oc2cc(O)ccc2s1 | 12.5
C[C@@H]1CN([C@H](C)CO)C(=O)c2cc(NC(=O)c3ccccc3)ccc2O[C@@H](C)CCCCO[C@H]1CN(C)C(=O)Nc1cccc2ccccc12 | 2.17
COc1cc(C(=O)N2CCC(N3CCN(C)CC3)CC2)ccc1Nc1ncc2c(n1)N(C)c1ccccc1C(=O)N2C | 10
Cc1ccc(C(C)C)c(OCc2ccc(C(=O)N/N=C/c3ccc(O)cc3O)cc2)c1 | 0.296
COc1cccc(Sc2ccccc2/C=N/NC(N)=O)c1 | 2.23
O=C(O)c1ccccc1C(=O)Nc1ccc(Oc2cccc3ccccc23)cc1 | 18.9
COC(=O)C1=C(C)N(Cc2ccccc2C(F)(F)F)C(=NCc2ccc(OC)cc2)NC1c1ccc(C(F)(F)F)cc1 (stereo not drawn) | 13.1
CCOc1cc2[nH]c(=S)n(Cc3ccc(C(=O)NCCN(CC)CC)cc3)c(=O)c2cc1OCC | 12
COc1ccc(N=C2C(=O)Nc3ccc(C)c(Br)c32)cc1 | 17
COc1cccc(-c2cc(NC=O)c3ncc(-c4ccc(C(C)=O)cc4)n3c2)c1 | 4.09

SMILES | AC35 [µM]
COc1ccc(C2=Nn3c(nnc3-c3ccccc3OC)SC2)cc1OCC1CC1 | 4.88
CCCCc1c(Cc2ccccc2)ncn1CCc1ccccc1OC | 15
COC(=O)CC1(C(=O)OC)Oc2ccc(Br)cc2C(=O)N1c1cccc(Cl)c1Cl (stereo not drawn) | 14.2
N#C[C@@H]1[C@H](c2ccc(C#Cc3ccc(F)cc3)cc2)[C@@H](CO)N1C(=O)Nc1ccc(F)cc1 | 12.3
C[C@H](CO)N1C[C@H](C)[C@H](CN(C)CC2CCCCC2)Oc2ccc(NC(=O)Nc3cccc4ccccc34)cc2C1=O | 18.7
C=C(C(=O)c1ccccc1)C(C)C(=C)C(=O)c1ccccc1 | 4.81
Nc1nc2cc3c(cc2cc1C(=O)NCCc1c[nH]c2ccccc12)OCO3 | 8.07
Nc1nc(=S)c2[nH]cnc2[nH]1 | 0.814
O=C(NC[C@@H]1N[C@@H](CO)[C@H]1c1ccc(C2=CCCCC2)cc1)c1cccc(F)c1 | 11.1
COc1ccc(C2=NNC(=Nc3cc(S(=O)(=O)N(C)C)ccc3C)SC2)c(OC)c1 | 20.5
C[C@@H]1CCCCO[C@H](CN(C)Cc2ccc(C(=O)Nc3ccccc3N)cc2)[C@@H](C)CN([C@H](C)CO)C(=O)c2cc(NS(=O)(=O)c3ccc(F)cc3)ccc2O1 | 14.1
CC1(C)N=C(N)N=C(N)N1c1ccc(OCCCOc2ccccc2)c(Cl)c1 | 1.48
OC[C@H]1O[C@@H](n2cnc3c(NCc4ccco4)ncnc32)[C@H](O)[C@@H]1O | 3.68
N#CC(=C1C=CC(=NO)C(Cl)=C1)c1ccccc1 | 5.59
C[C@@H]1CN([C@@H](C)CO)C(=O)c2cc(NC(=O)c3ccccc3)ccc2O[C@@H](C)CCCCO[C@H]1CN(C)C(=O)Nc1cccc2ccccc12 | 0.62
C[C@]12CC[C@H](O)C[C@H]1CC[C@@H]1[C@@H]2CC[C@]2(C)[C@@H](C3=CC(=O)OC3)CC[C@]12O | 0.62
Cc1ccc(S(=O)(=O)N(C)C[C@@H]2Oc3ccc(NC(=O)CCCCCC(=O)Nc4ccccc4N)cc3CC(=O)N([C@@H](C)CO)C[C@@H]2C)cc1 | 15.3
Brc1ccc(CSc2nnc(-c3ccco3)o2)cc1 | 6.49
N#CC(C#N)=C1C=CC=CN1/C(=C\c1ccco1)C(=O)c1ccc(Cl)cc1 | 3.04
COc1ccc(C(CCNCc2ccc(OC(C)C)cc2)C(C)C)cc1 (stereo not drawn) | 12.6
Oc1[nH]c2ccc(Br)cc2c1N=NC(=S)N1CCOCC1 | 0.236
COc1ccc(NC(=S)N=Nc2c(O)[nH]c3ccccc23)cc1 | 1.75

SMILES | AC35 [µM]
C[C@H]1CN([C@@H](C)CO)C(=O)c2cccc(NC(=O)c3ccc(-c4nccs4)cc3)c2O[C@@H]1CN(C)Cc1ccc(C(=O)Nc2ccccc2N)cc1 | 18.1
COC(=O)C[C@@H]1CC[C@@H]2[C@H](COc3ccc(NC(=O)Nc4cccc(C#N)c4)cc3C(=O)N2C)O1 | 12
COc1ccc(CN(C)C[C@H]2Oc3ccc(NC(=O)CCCCCC(=O)Nc4ccccc4N)cc3CC(=O)N([C@H](C)CO)C[C@H]2C)cc1 | 18
C[C@H](CO)N1C[C@H](C)[C@H](CN(C)Cc2ccc(C(=O)Nc3ccccc3N)cc2)Oc2ccc(N(C)C)cc2CC1=O | 3.83
COCC(=O)Nc1ccc2c(c1)[C@@H]1C[C@@H](CC(=O)NCc3ccc(-c4ccccc4)cc3)O[C@@H](CO)[C@@H]1O2 | 12.7
COC(=O)C[C@@H]1CC[C@@H]2[C@H](COc3ccc(NC(=O)c4ccc(C(F)(F)F)cc4)cc3C(=O)N2C)O1 | 10.5
Cc1ccc2nc(-c3ccccc3)nn2c1 | 13.8
COc1ccccc1N(/N=C1\Sc2ccccc2C1=O)C(C)=O | 14.8
C[C@@H]1CN([C@@H](C)CO)C(=O)c2cccc(NC(=O)CCCCCC(=O)Nc3ccccc3N)c2O[C@@H]1CN(C)Cc1ccc(Oc2ccccc2)cc1 | 14.8
O=C(N/N=C/c1cccs1)c1n[nH]c2c1CCCC2 | 17.7
Cc1cccc(/C=C(\c2nc3ccccc3[nH]2)S(=O)(=O)c2ccccc2)c1 | 5.92
C(=Cc1cnc2ccccc2n1)c1ccc2c(c1)OCO2 | 8.73
Cc1ccc(C)c(S(=O)(=O)N2CCN(c3ncnc4sccc34)CC2)c1 | 5.35
Cc1nc2ncccn2c1-c1csc(Nc2ccc(O)cc2)n1 | 1.35
O=c1ccc2[n+]([O-])c3ccc(O)cc3oc-2c1 | 8.92
S=c1[nH]nc(-c2cc(-c3ccccc3)n[nH]2)n1/N=C/C(Br)=C/c1ccccc1 | 5.5
C[C@@H]1CN([C@@H](C)CO)C(=O)c2cc(NS(=O)(=O)c3ccc(F)cc3)ccc2O[C@@H]1CN(C)Cc1ccc(C(=O)Nc2ccccc2N)cc1 | 11.3
COc1ccc(-c2cc(CNc3nc(NC(C)C)nc4cc(-c5ccccc5)sc34)on2)cc1 | 10
COC(=O)C[C@@H]1CC[C@@H]2[C@H](COc3ccc(NC(=O)c4cc(C)on4)cc3C(=O)N2C)O1 | 14.5
C[C@H]1CN([C@@H](C)CO)C(=O)c2cc(NS(=O)(=O)c3ccc(Cl)cc3)ccc2O[C@H]1CN(C)Cc1ccc(C(=O)Nc2ccccc2N)cc1 | 13.1
C[C@@H]1O[C@@H](O[C@H]2C[C@@H](O)[C@]3(CO)[C@H]4[C@H](O)C[C@]5(C)[C@@H](C6COC(=O)C6)CC[C@]5(O)[C@@H]4CC[C@]3(O)C2)[C@H](O)[C@H](O)[C@H]1O (stereo partly drawn) | 2.06
COc1cc(-c2coc3c(C(=O)NCc4ccc(C(F)(F)F)cc4)cccc23)ccc1O | 13.7
